{
  "source": "paper PMC4398456",
  "about": "“Evidence for a Novel Mechanism of Antimicrobial Action of a Cyclic R-,W-Rich Hexapeptide” (PLoS ONE, 2015)",
  "assay": "ITC binding to LUVs",
  "set-up": "species or system E. coli",
  "conditions": "25°C",
  "description": "The lipid concentration of E. coli extract preparations was determined from dried lipid films by gravimetric analysis. Liposomes were prepared after resuspension in phosphate buffer and sonication on ice for 25 min under nitrogen stream using a Labsonic L ultrasonicator (B. Braun Biotech, Germany) followed by centrifugation for 5 min at 11000 × g (Eppendorf MiniSpin, Germany) to remove potential titanium debris. The diameter of LUVs from E. coli extract was 90 nm. According to manufacturer's data, E. coli polar lipid extract is a three component mixture containing 71.4% PE-, 23.4% PG-lipids and 5.2% CL (mol%).\nHigh-sensitivity isothermal titration calorimetry (ITC) experiments to characterise peptide interaction with model membranes were performed at 25°C on a VP-ITC instrument (MicroCall, Malvern Instruments, UK). Binding data were generated as described before. Prior to use, solutions were gently degassed under vacuum. 10 μl aliquots of 5 to 10 mM lipid vesicles were titrated into a 40 μM peptide solution inside the calorimeter cell (1.4 ml) while the reaction mixture was continuously stirred at 307 rpm. Time intervals between injections were adjusted to 10 min which was sufficient for the heat signal to return to baseline level. Automated baseline adjustment and peak integration were accomplished with the public-domain software NITPIC [32].\nBinding parameters, such as hydrophobic partition coefficient (K 0) and enthalpy of binding (ΔH°), were derived by applying a surface partition equilibrium under the specific condition that peptide adsorption is linearly related to the peptide concentration immediately above the membrane surface. This concentration in close proximity to the membrane is determined by electrostatic interactions and depends on the bulk concentration of peptide, peptide charge and membrane surface potential. Negatively charged lipid layers attract cationic peptides. Consequently, the membrane surface concentration is enhanced compared to that in the bulk solution. After binding of cationic peptides to an electrically neutral membrane it becomes positively charged which results in a repulsion of further peptides from the membrane surface. Using the Gouy—Chapman theory which accounts for electrostatic effects, it is possible to calculate the peptide surface concentration and to determine the partition coefficient K 0 [33]. Nonlinear least-squares data fitting was performed with Excel 2010 (Microsoft) using the Solver add-in (Frontline Systems). The Gibbs free energy was calculated according to ΔG° = -RT ln(55.5 M × K 0), where 55.5 M is the molar concentration of water in the aqueous phase. Finally, the entropic contribution to membrane partitioning,-TΔS°, was derived from the Gibbs-Helmholtz equation, ΔG° = ΔH°-TΔS°.",
  "note": "Residues, ends and D or L forms follow the SMILES beside them.",
  "data": [
    {"compound": "N=C(N)NCCC[C@@H]1NC(=O)[C@H](CCCNC(=N)N)NC(=O)[C@H](Cc2c[nH]c3ccccc23)NC(=O)[C@H](Cc2ccccc2)NC(=O)[C@H](Cc2c[nH]c3ccccc23)NC(=O)[C@H](CCCNC(=N)N)NC1=O", "note": "[cWFW] (cyclo(FWRRRW))", "values": [
      {"measurement": "ΔH°", "setting": "10 mM LUVs into 40 μM peptide, γ = 0.6", "result": -3.99, "unit": "kcal/mol"},
      {"measurement": "K 0 (hydrophobic partition coefficient)", "setting": "10 mM LUVs titrated into 40 μM peptide, phosphate buffer pH 7.4, surface partition model, γ = 0.6", "result": "8.8e+06", "unit": "M⁻¹"},
      {"measurement": "ΔG°", "setting": "calculated as -RT ln(55.5 M × K 0), LUVs of E. coli extract", "result": -11.9, "unit": "kcal/mol"},
      {"measurement": "-TΔS°", "setting": "from Gibbs-Helmholtz equation, LUVs of E. coli extract", "result": -7.86, "unit": "kcal/mol"}
    ]}
  ]
}
